Results taken from US20240207263A1, “SELECTIVE MODULATORS OF ATAXIA TELA[…] (ATM) KINASE AND USES THEREOF” (priority 2021, published 2024).

What follows are compounds tested against ATM (Homo sapiens (Human), UniProt Q13315) (assay: biochemical). Conditions: read-out: ATM IC50.
Format: biochemical
From the text: Assay a): ATM Biochemical Potency
Data was collected by Caliper.

Sequence of ATM (Q13315 whole entry, looked up): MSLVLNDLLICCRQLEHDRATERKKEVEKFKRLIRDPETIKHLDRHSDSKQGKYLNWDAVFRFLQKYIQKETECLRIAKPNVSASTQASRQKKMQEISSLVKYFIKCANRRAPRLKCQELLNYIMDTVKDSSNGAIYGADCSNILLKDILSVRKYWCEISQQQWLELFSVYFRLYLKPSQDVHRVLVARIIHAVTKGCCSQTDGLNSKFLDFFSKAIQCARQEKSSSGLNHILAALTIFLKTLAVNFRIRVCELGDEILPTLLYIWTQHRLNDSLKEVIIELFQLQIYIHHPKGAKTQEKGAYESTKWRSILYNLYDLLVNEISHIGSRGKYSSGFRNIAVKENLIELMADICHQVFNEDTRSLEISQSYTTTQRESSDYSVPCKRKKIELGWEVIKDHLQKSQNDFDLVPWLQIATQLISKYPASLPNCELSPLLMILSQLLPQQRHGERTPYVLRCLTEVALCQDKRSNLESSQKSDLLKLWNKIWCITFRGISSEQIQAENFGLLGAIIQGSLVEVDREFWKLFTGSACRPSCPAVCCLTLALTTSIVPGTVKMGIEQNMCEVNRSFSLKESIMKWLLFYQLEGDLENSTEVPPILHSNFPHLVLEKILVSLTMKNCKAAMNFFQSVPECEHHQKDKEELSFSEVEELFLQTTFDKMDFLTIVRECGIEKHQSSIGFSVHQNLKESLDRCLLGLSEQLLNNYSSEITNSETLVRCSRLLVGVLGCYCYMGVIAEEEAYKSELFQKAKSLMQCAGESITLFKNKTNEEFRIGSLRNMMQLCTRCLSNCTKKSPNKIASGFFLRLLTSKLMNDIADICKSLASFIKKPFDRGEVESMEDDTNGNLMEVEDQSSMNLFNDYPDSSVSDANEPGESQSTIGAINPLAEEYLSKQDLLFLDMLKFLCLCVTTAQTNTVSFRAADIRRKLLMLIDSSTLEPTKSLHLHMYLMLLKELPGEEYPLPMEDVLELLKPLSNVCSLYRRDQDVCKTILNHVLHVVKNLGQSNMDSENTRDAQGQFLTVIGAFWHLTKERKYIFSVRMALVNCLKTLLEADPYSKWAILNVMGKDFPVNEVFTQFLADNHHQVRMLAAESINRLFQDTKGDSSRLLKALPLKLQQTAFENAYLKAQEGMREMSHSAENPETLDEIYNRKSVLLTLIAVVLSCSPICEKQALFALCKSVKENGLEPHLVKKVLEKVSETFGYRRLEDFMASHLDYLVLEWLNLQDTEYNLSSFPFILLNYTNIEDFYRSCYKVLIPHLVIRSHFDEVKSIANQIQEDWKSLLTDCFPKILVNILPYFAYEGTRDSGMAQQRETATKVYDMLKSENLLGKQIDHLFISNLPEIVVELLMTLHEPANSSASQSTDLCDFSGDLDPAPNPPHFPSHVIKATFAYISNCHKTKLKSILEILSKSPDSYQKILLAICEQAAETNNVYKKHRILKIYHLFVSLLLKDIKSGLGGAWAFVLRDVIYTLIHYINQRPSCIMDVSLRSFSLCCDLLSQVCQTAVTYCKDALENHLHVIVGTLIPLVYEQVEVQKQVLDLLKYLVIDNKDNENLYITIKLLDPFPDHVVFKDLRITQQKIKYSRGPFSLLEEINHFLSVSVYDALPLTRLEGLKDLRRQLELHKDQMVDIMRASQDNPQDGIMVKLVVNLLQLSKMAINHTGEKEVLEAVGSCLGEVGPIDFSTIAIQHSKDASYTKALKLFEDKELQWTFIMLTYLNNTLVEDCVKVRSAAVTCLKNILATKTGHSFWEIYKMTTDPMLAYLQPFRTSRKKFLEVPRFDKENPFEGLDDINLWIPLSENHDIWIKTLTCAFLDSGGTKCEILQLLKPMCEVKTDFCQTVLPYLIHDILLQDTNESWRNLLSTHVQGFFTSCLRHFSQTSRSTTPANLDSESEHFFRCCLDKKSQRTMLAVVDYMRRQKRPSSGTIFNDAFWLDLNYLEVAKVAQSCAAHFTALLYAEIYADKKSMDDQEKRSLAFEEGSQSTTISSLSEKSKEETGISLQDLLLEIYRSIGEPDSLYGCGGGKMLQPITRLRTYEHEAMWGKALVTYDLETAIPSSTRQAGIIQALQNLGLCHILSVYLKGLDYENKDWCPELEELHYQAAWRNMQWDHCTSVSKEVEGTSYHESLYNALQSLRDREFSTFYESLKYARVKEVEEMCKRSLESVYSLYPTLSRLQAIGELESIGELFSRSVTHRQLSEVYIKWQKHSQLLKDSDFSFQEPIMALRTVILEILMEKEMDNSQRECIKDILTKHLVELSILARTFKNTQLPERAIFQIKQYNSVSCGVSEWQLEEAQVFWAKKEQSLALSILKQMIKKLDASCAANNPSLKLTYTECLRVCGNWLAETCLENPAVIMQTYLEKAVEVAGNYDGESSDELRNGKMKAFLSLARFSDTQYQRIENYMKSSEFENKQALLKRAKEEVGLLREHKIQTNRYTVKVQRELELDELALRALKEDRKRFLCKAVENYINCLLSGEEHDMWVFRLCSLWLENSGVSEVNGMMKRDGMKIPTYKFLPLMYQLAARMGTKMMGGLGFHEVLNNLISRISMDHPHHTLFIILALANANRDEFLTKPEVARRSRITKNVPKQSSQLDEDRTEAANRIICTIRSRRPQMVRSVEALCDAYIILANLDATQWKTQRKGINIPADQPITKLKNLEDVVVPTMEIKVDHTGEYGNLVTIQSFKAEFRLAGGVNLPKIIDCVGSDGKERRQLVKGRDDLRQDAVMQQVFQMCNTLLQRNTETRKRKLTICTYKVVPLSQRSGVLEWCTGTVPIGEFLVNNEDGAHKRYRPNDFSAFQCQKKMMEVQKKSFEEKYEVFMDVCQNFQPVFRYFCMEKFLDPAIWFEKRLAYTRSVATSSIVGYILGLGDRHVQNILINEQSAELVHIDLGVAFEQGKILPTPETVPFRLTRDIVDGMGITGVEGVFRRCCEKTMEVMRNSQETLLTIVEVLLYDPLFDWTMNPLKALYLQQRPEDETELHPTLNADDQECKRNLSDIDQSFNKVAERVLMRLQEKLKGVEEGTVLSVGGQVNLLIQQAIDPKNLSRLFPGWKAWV

Row | SMILES | IC50 [nM]
1 | COC[C@@H]1CCN(CCO[C@H](C)c2ccc(-c3ccc4nnc5c(c4c3)n(C3CCOCC3)c(=O)n5C)cn2)C1 [Example 119, 8-(6-((R)-1-(2-((R)-3-(methoxymethyl)pyrrolidin-1-yl)ethoxy)ethyl)pyridin-3-yl)-3-methyl-1-(tetrahydro-2H-pyran-4-yl)-1H-imidazo[4,5-c]cinnolin-2(3H)-one] | 2.4
2 | C[C@@H](OCCN1CCCCC1)c1ccc(-c2ccc3nnc4c(c3c2)n(C2CCOCC2)c(=O)n4C)cn1 [Example 120, (R)-3-methyl-8-(6-(1-(2-(piperidin-1-yl)ethoxy)ethyl)pyridin-3-yl)-1-(tetrahydro-2H-pyran-4-yl)-1H-imidazo[4,5-c]cinnolin-2(3H)-one] | 11
3 | C[C@@H](OCCN1CCCC1)c1ccc(-c2ccc3nnc4c(c3c2)n(C2CCOCC2)c(=O)n4C)cn1 [Example 121, (R)-3-methyl-8-(6-(1-(2-(pyrrolidin-1-yl)ethoxy)ethyl)pyridin-3-yl)-1-(tetrahydro-2H-pyran-4-yl)-1H-imidazo[4,5-c]cinnolin-2(3H)-one] | 13
4 | C[C@@H](OCCN1CC[C@@H](OC2CC2)C1)c1ccc(-c2ccc3nnc4c(c3c2)n(C2CCOCC2)c(=O)n4C)cn1 [Example 122, 8-(6-((R)-1-(2-((R)-3-cyclopropoxypyrrolidin-1-yl)ethoxy)ethyl)pyridin-3-yl)-3-methyl-1-(tetrahydro-2H-pyran-4-yl)-1H-imidazo[4,5-c]cinnolin-2(3H)-one] | 4.3
5 | C[C@@H]1CCN(CCO[C@H](C)c2ccc(-c3ccc4nnc5c(c4c3)n(C3CCOCC3)c(=O)n5C)cn2)C1 [Example 123, 3-methyl-8-(6-((R)-1-(2-((R)-3-methylpyrrolidin-1-y)ethoxy)ethyl)pyridin-3-yl)-1-(tetrahydro-2H-pyran-4-yl)-1H-imidazo[4,5-c]cinnolin-2(3H)-one] | 16
6 | C[C@@H](OCCN1CCC2(CCC2)CC1)c1ccc(-c2ccc3nnc4c(c3c2)n(C2CCOCC2)c(=O)n4C)cn1 [Example 124, (R)-8-(6-(1-(2-(7-azaspiro[3.5]nonan-7-yl)ethoxy)ethyl)pyridin-3-yl)-3-methyl-1-(tetrahydro-2H-pyran-4-yl)-1H-imidazo[4,5-c]cinnolin-2(3H)-one] | 1.1
7 | C[C@@H](OCCN1CCC2(CCO2)CC1)c1ccc(-c2ccc3nnc4c(c3c2)n(C2CCOCC2)c(=O)n4C)cn1 [Example 125, (R)-8-(6-(1-(2-(1-oxa-7-azaspiro[3.5]nonan-7-yl)ethoxy)ethyl)pyridin-3-yl)-3-methyl-1-(tetrahydro-2H-pyran-4-yl)-1H-imidazo[4,5-c]cinnolin-2(3H)-one] | 6.3
8 | C[C@H]1CCN(CCO[C@H](C)c2ccc(-c3ccc4nnc5c(c4c3)n(C3CCOCC3)c(=O)n5C)cn2)C1 [Example 126, 3-methyl-8-(6-((R)-1-(2-((S)-3-methylpyrrolidin-1-yl)ethoxy)ethyl)pyridin-3-yl)-1-(tetrahydro-2H-pyran-4-yl)-1H-imidazo[4,5-c]cinnolin-2(3H)-one] | 20
9 | C[C@@H](OCCN1CC2(COC2)C1)c1ccc(-c2ccc3nnc4c(c3c2)n(C2CCOCC2)c(=O)n4C)cn1 [Example 127, (R)-8-(6-(1-(2-(2-oxa-6-azaspiro[3.3]heptan-6-yl)ethoxy)ethyl)pyridin-3-yl)-3-methyl-1-(tetrahydro-2H-pyran-4-yl)-1H-imidazo[4,5-c]cinnolin-2(3H)-one] | 13
10 | C[C@@H](OCCN1CCC(C2COC2)CC1)c1ccc(-c2ccc3nnc4c(c3c2)n(C2CCOCC2)c(=O)n4C)cn1 [Example 128, (R)-3-methyl-8-(6-(1-(2-(4-(oxetan-3-yl)piperidin-1-yl)ethoxy)ethyl)pyridin-3-yl)-1-(tetrahydro-2H-pyran-4-yl)-1H-imidazo[4,5-c]cinnolin-2(3H)-one] | 4.6
